{
  "source": "patent US8710082B2",
  "about": "“Benzimidazole inhibition of biofilm formation” (priority 2011, dated 2014)",
  "key": {"VC1673-lux": {"system": "VC1673-lux", "test": "microbe, parasite or virus in culture", "details": "Vibrio cholerae, read-out: IC50 of inhibition of VC1673-lux"}, "V. cholerae [1]": {"system": "V. cholerae", "test": "MBEC static crystal-violet biofilm assay, V. cholerae", "type": "cell-based, Vibrio cholerae", "details": "for inhibition of V. cholerae biofilm development: 100 μM, MBEC crystal-violet assay"}, "Klebsiella pneumoniae [2]": {"system": "Klebsiella pneumoniae", "test": "MBEC static biofilm assay, K. pneumoniae", "type": "cell-based", "details": "ABC-1 between 50 and 100 μM for select pathogens, 24 hours", "experimental": "(§1) Biofilm formation was measured under both static and flow conditions. For the static condition, we used quantitative crystal violet assay on polystyrene 96-well and MBEC plates (Biosurface Technologies, Bozeman Mont.) as described previously. The MBEC technology is a 96-well plate cover containing 96 polystyrene pegs that sit in the 96 wells of a conventional plate. Briefly, overnight grown cultures were standardized to 0.1 OD595, 200 μL was transferred to the wells of a 96-well polystyrene microtiter plate (Corning, Inc., Corning, N.Y.), and the MBEC lid was placed on top of the wells. Biofilms were grown on the pegs of the lid under shaking conditions for 24 h. The lid was removed and the pegs were gently washed twice with 200 μL of phosphate-buffered saline to remove non adherent cells. Adherent biofilms on the pegs were fixed with 200 μL of 100% ethanol prior to staining for 2 min with 200 μL of 0.41% (wt/vol) crystal violet in 12% ethanol (Protocol Crystal Violet; Biochemical Sciences, Swedesboro, N.J.). […] Quantitative assessment of biofilm formation was obtained by immersing the pegs in sterile polystyrene microtiter plate containing 200 μl of 100% ethanol and incubating at room temperature for 10 min (60) and the absorbance at 595 nm was determined using a SpectraMax M5 microplate spectrophotometer system (Molecular Devices, Sunnyvale, Calif.). […]"}, "Erwinia amylovora": {"system": "Erwinia amylovora", "test": "MBEC static biofilm assay, E. amylovora", "type": "cell-based", "details": "100 μM", "experimental": "as §1"}, "[3]": {"system": "diguanylate cyclase (DGC) enzyme VC2370", "type": "biochemical", "source_text": "(§2) Furthermore, we established an in vitro assay to measure the activity of the diguanylate cyclase (DGC) enzyme VC2370 that synthesizes c-di-GMP and the phosphodiesterase (PDE) enzyme VieA that degrades c-di-GMP."}, "[4]": {"system": "phosphodiesterase (PDE) enzyme VieA", "type": "biochemical", "source_text": "as §2"}, "P. aeruginosa CF-145 [5]": {"system": "P. aeruginosa CF-145", "test": "MBEC static crystal-violet biofilm assay, P. aeruginosa CF-145", "type": "cell-based, Pseudomonas aeruginosa", "experimental": "as §1"}, "[6]": {"system": "Staphylococcus aureus MRSA strain USA3000", "test": "MBEC static biofilm assay, S. aureus USA300 (CA-MRSA)", "type": "cell-based", "details": "25 μM", "experimental": "as §1"}, "Shigella boydii": {"system": "Shigella boydii", "test": "MBEC static biofilm assay, S. boydii", "type": "cell-based", "details": "100 μM", "experimental": "as §1"}, "CA-MRSA (USA-300)": {"system": "CA-MRSA (USA-300)", "test": "Flow-cell biofilm formation (CLSM), CA-MRSA USA300", "type": "cell-based, Staphylococcus aureus", "details": "25 μM, shear conditions"}, "gram-negative bacteria": {"system": "gram-negative bacteria", "test": "Impact on growth of gram-negative bacteria", "type": "cell-based", "details": "concentrations used in biofilm tests; data not shown"}, "Klebsiella pneumoniae [7]": {"system": "Klebsiella pneumoniae", "test": "Flow-cell biofilm formation (CLSM), K. pneumoniae", "type": "cell-based", "details": "continuous flow"}, "S. aureus": {"system": "S. aureus", "type": "cell-based, Staphylococcus aureus", "details": "data not shown"}, "S. boydii": {"system": "S. boydii", "test": "Flow-cell biofilm formation (CLSM), S. boydii", "type": "cell-based, Shigella boydii", "details": "100 μM, 48 h"}, "S. aureus strain Newman [8]": {"system": "S. aureus strain Newman", "test": "Flow-cell biofilm formation (CLSM), S. aureus Newman", "type": "cell-based, Staphylococcus aureus", "details": "25 μM, shear conditions"}, "P. aeruginosa CF-145 [9]": {"system": "P. aeruginosa CF-145", "test": "Flow-cell biofilm formation (CLSM), P. aeruginosa CF-145", "type": "cell-based, Pseudomonas aeruginosa", "details": "100 μM, 24 h"}, "S. aureus strain Newman [10]": {"system": "S. aureus strain Newman", "test": "MBEC static biofilm assay, S. aureus Newman", "type": "cell-based, Staphylococcus aureus", "details": "25 μM", "experimental": "as §1"}, "c-di-GMP in V. cholerae": {"system": "c-di-GMP in V. cholerae", "type": "cell-based, Vibrio cholerae"}, "E. amylovora": {"system": "E. amylovora", "test": "Flow-cell biofilm formation (CLSM), E. amylovora", "type": "cell-based, Erwinia amylovora", "details": "100 μM, continuous flow"}, "[11]": {"system": "K. pneumoniae pre-formed biofilms", "test": "Dispersal of pre-formed biofilms under flow, K. pneumoniae", "type": "cell-based, Klebsiella pneumoniae", "details": "100 μM added at 24 hours, 3, 6 and 24-hour incubation"}, "[12]": {"system": "P. aeruginosa pre-formed biofilms", "test": "Dispersal of pre-formed biofilms under flow, P. aeruginosa", "type": "cell-based, Pseudomonas aeruginosa", "details": "100 μM added at 24 hours, 3, 6 and 24-hour incubation"}, "[13]": {"system": "c-di-GMP in P. aeruginosa PA01", "type": "cell-based, Pseudomonas aeruginosa", "details": "35 μM, data not shown"}, "V. cholerae [14]": {"system": "V. cholerae", "test": "Flow-cell biofilm formation (CLSM), V. cholerae", "type": "cell-based, Vibrio cholerae", "details": "10 μM, 24 hours", "experimental": "For biofilm experiments under flow conditions, biofilms were grown in disposable flow cells (Stovall Life Science, Greensboro, N.C.) as described elsewhere. In brief, the inlet side of the flow cell was connected to a sterile reservoir filled with the appropriate growth medium. The outlet side was connected to a waste reservoir to create a “once-through” flow cell system. Tubing upstream of each individual cell was injected with 0.5 mL of standardized overnight culture of the test strain and the chamber was incubated in upright position at 37° C. for 1 h. Flow was then resumed with flow rate of 0.2 mL/min for V. cholerae, P. aeruginosa, S. boydii, S. aureus and K. pneumoniae, and a flow rate of 0.15 mL/min for E. amylovora. The non-adherent bacteria were eventually flushed by the flow of the medium thereby replacing the volume of the flow cell once every minute. Biofilm formation on the flow cell was imaged both macroscopically and microscopically at 24 h and 48 h. […]\nFor CLSM analysis of biofilms, the medium flow was stopped and fluorescent dyes syto-9 and propidium iodide (Molecular Probes, Eugene, Oreg., USA) were injected into the flow cell chamber and incubated for 30 min in the dark. […] Thickness of the biofilm was measured starting from the z-section at the flow-cell/biofilm interface to the z-section at the top of the biofilm surface containing <5% of total biomass. […]"}},
  "note": "“Also recorded” adds a separate entry of the source.",
  "data": [
    {"molecule": "COc1ccc2[nH]c(SCc3ccc(Cl)cc3)nc2c1", "note": "[ABC-2, 2-[(4-chlorobenzyl)thio]-5-methoxy-1H-benzimidazole]", "values": [
      {"measurement": "IC50", "setting": "VC1673-lux", "result": "< 10000", "unit": "nM"},
      {"measurement": "inhibition of V. cholerae biofilm development", "setting": "V. cholerae [1]", "result": "capable of significantly inhibiting V. cholerae biofilm development"}
    ]},
    {"molecule": "COc1ccc2[nH]c(SCc3ccc(C)cc3)nc2c1", "note": "[ABC-1, 5-methoxy-2-[(4-methylbenzyl)sulfanyl]-1H-benzimidazole]", "values": [
      {"measurement": "inhibition of biofilms, static", "setting": "Klebsiella pneumoniae [2]", "result": "significantly inhibited biofilms; also recorded: inhibited biofilm formation"},
      {"measurement": "inhibition of biofilms, static", "setting": "Erwinia amylovora", "result": "significantly inhibited biofilms; also recorded: pronounced decrease"},
      {"measurement": "in vitro activity of DGC VC2370", "setting": "[3]", "result": "no significant impact"},
      {"measurement": "in vitro activity of PDE VieA", "setting": "[4]", "result": "no significant impact"},
      {"measurement": "inhibition of biofilms, static", "setting": "P. aeruginosa CF-145 [5]; ABC-1 between 50 and 100 μM for select pathogens, MBEC static", "result": "significantly inhibited biofilms"},
      {"measurement": "IC50", "setting": "P. aeruginosa CF-145 [5]; Pseudomonas aeruginosa, CF145, read-out: IC50 to inhibit biofilm formation of P. aeruginosa", "result": 45.9, "unit": "nM"},
      {"measurement": "inhibition of biofilms, static", "setting": "[6]", "result": "significantly inhibited biofilms; also recorded: statistically significant (P<0.05), but less robust than observed for most gram-negative pathogens"},
      {"measurement": "IC50", "setting": "VC1673-lux", "result": "< 10000", "unit": "nM"},
      {"measurement": "inhibition of biofilms, static", "setting": "Shigella boydii", "result": "significantly inhibited biofilms; also recorded: significantly impacted"},
      {"measurement": "biofilm formation under flow", "setting": "CA-MRSA (USA-300)", "result": "reduced compared to the untreated condition"},
      {"measurement": "inhibition of growth of gram-negative bacteria", "setting": "gram-negative bacteria", "result": "no impact on growth; also recorded: no concentration of ABC-1 showed inhibition of growth"},
      {"measurement": "biofilm formation under flow", "setting": "Klebsiella pneumoniae [7]; 24 hours", "result": "inhibited biofilm formation"},
      {"measurement": "fate of biofilms that did form in the presence of ABC-1", "setting": "Klebsiella pneumoniae [7]; data not shown", "result": "began to disperse beyond 30 hours"},
      {"measurement": "concentration that inhibited the growth of S. aureus", "setting": "S. aureus", "result": "≥ 50", "unit": "µM"},
      {"measurement": "inhibition of V. cholerae biofilm development", "setting": "V. cholerae [1]", "result": "capable of significantly inhibiting V. cholerae biofilm development"},
      {"measurement": "IC50", "setting": "V. cholerae [1]; Vibrio cholerae, read-out: IC50 to inhibit biofilm formation of V. cholerae", "result": 32.3, "unit": "nM"},
      {"measurement": "biofilm formation under flow", "setting": "S. boydii", "result": "greatly reduced biofilm formation"},
      {"measurement": "biofilm formation under flow", "setting": "S. aureus strain Newman [8]", "result": "less surface area coverage and biofilms were present as small patches"},
      {"measurement": "biofilm formation under flow", "setting": "P. aeruginosa CF-145 [9]", "result": "greatly reduced biofilm formation"},
      {"measurement": "inhibition of biofilms, static", "setting": "S. aureus strain Newman [10]", "result": "significantly inhibited biofilms; also recorded: statistically significant (P<0.05), but less robust than observed for most gram-negative pathogens"},
      {"measurement": "intracellular c-di-GMP", "setting": "c-di-GMP in V. cholerae", "result": "modest reduction"},
      {"measurement": "biofilm development under flow", "setting": "E. amylovora", "result": "pronounced decrease"},
      {"measurement": "dispersal of pre-formed biofilms", "setting": "[11]", "result": "did not confer any significant changes in biofilm architecture"},
      {"measurement": "dispersal of pre-formed biofilms", "setting": "[12]", "result": "did not confer any significant changes in biofilm architecture"},
      {"measurement": "levels of c-di-GMP", "setting": "[13]", "result": "no effect"},
      {"measurement": "biofilm formation under flow", "setting": "V. cholerae [14]", "result": "dramatically reduced biofilm formation"}
    ]}
  ]
}
